Data from paper PMC9678865, “An odorant-binding protein in the elephant's trunk is finely tuned to sex pheromone (Z)-7-dodecenyl acetate” (Scientific Reports, 2022).
Entries after “also recorded” stand apart in the source; their conditions may differ.

Experiments:
recombinant EmaxOBP1 [1] = molecular target: T1, recombinant EmaxOBP1 (Elephas maximus, UniProt Q8HZN2); experiment: Titration of recombinant protein with fluorescent probe 1-NPN; type: binding, Asian elephant (Elephas maximus); conditions: 2 μM protein in 50 mM Tris-HCl pH 7.4, room temperature
T1 sequence (Q8HZN2 entry or part of it): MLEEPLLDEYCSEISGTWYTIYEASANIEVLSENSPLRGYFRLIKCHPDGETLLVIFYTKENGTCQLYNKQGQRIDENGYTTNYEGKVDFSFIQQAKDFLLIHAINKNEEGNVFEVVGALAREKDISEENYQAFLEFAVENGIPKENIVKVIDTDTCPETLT
Description: (§1) Affinities of the fluorescent probe N-phenyl-1-naphthylamine (1-NPN) to EmaxOBP1 and LafrOBP1 (both expressed in yeast) were evaluated by titrating a 2 μM solution of each protein in 50 mM Tris-HCl, pH 7.4 with 1 mM 1-NPN in methanol to final concentrations of 2–16 μM. Dissociation constants of other ligands were measured by displacement of the fluorescent reporter 1-NPN from the complex. Accordingly, solutions of protein and 1-NPN, both at the concentration of 2 μM in 50 mM Tris-HCl, pH 7.4, were titrated with 1 mM methanol solutions of each ligand to final concentrations of 2–16 μM. Emission spectra were recorded on a PerkinElmer FL 6500 spectrofluorimeter in a right-angle configuration, at room temperature, with slits of 5 nm for both excitation and emission, using 1 cm path quartz cuvettes. The excitation wavelength was set at 337 nm and intensities were recorded in correspondence with the peak maximum, around 390 nm. Data for 1-NPN were processed with Prism software.

[2] = system: second major band (apparent mass around 25 kDa) from expression of LafrOBP1 in P. pastoris; experiment: Binding of 1-NPN to the second band (around 25 kDa) from LafrOBP1 expression; design: species or system African elephant (Loxodonta africana); conditions: purified second band
Source text: Based on above-reported proteomic analysis and on the available sequences in the protein databases, we decided to focus our functional study on the OBP1 of both species. Thus, LafrOBP1 and EmaxOBP1 were expressed in the yeast Pichia pastoris using the protocol reported in the Materials and Methods section. We chose to perform functional studies on recombinant proteins because attempts to purify natural LafrOBP1 from its contaminants were unsuccessful (data not shown). The recombinant proteins were secreted in the culture medium, concentrated by ultrafiltration and purified by anion-exchange chromatography, followed by a step of hydrophobic interaction chromatography on Phenyl Sepharose. Figure S3 reports the SDS-PAGE analysis relative to the expression and purification of the two proteins. The expression of EmaxOBP1 produced a single major band migrating with an apparent molecular weight (around 20 kDa), compatible with the calculated mass for this protein (18,506.7 Da). Instead, the expression of the African elephant orthologue afforded two major bands, the first migrating at the same level as EmaxOBP1, the second with an apparent mass around 25 kDa.

[3] = system: OBP in the trunk wash of the Asian elephant; design: method as in PMID 12269821; conditions: tritium-labelled ligand; radioactivity associated with OBP band; no dissociation constant; cited from earlier work
recombinant LafrOBP1 = recombinant LafrOBP1 (Loxodonta africana, UniProt G3UMG1); experiment: Competitive binding by displacement of 1-NPN; design: species or system African elephant (Loxodonta africana); conditions: protein and 1-NPN 2 μM each, ligand 2–16 μM
Sequence of recombinant LafrOBP1 (G3UMG1 entry or part of it): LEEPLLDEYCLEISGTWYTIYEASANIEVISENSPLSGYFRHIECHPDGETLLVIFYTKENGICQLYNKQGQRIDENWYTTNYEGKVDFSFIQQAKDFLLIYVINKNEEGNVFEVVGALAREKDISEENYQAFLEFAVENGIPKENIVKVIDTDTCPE
Description: (§2) Recombinant LafrOBP1 and EmaxOBP1 were then tested in ligand-binding assays using the Asian elephant pheromones (Z)-7-dodecenyl acetate and frontalin, and the insect pheromone components found in elephants, exo-brevicomin and (E)-β-farnesene, as well as structurally related compounds, and chemicals of different size and structure, which could contribute to estimate the specificity of these proteins. Both LafrOBP1 and EmaxOBP1 bound the fluorescent probe 1-NPN with good affinity (Fig. 5A), thus enabling the use of the fluorescent displacement assay to evaluate the affinities of other ligands. Some representative curves of competitive binding experiments for LafrOBP1 are shown in Fig. 5B-C, while in the histogram of Fig. 5D the binding spectra of LafrOBP1 and EmaxOBP1 are compared. The specificity of LafrOBP1 can be better appreciated from the graph of Fig. 6, where the affinities of esters to the protein are plotted as a function of the ligand's size.
as §1
(§3) Dissociation constants of other ligands were calculated from the corresponding [IC]50 values (the. concentration of each ligand halving the initial value of fluorescence), using the equation: Kd = [IC]50/1 + [1-NPN]/KNPN, where [1-NPN] is the concentration of free 1-NPN and KNPN the. dissociation constant of the complex OBP/1-NPN.

recombinant EmaxOBP1 [4] = molecular target: T1, recombinant EmaxOBP1; experiment: Competitive binding by displacement of 1-NPN; design: species or system Asian elephant (Elephas maximus); conditions: protein and 1-NPN 2 μM each, ligand 2–16 μM
Description: as §2, §1, §3

[5] = molecular target: natural LafrOBP1 (trunk wash fractions 26–29, also containing its isoform and LafrVEG) (Loxodonta africana, UniProt G3UMG1); experiment: Competitive fluorescent (1-NPN) ligand-binding assay on crude anion-exchange fractions 26–29 of trunk wash; design: species or system African elephant (Loxodonta africana); conditions: crude trunk wash fractions 26–29 / natural LafrOBP1
Sequence of natural LafrOBP1 (trunk wash fractions 26–29, also containing its isoform and LafrVEG) (G3UMG1 entry or part of it): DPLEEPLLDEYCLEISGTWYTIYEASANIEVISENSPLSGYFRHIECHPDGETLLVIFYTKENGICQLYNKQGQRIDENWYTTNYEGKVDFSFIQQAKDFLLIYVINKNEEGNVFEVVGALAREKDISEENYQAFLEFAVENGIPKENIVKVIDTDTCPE
Description: Given the predominant presence of LafrOBP1 in the trunk wash of the African elephant, we attempted purification of this protein from a crude sample of this secretion by anion-exchange chromatography. Relevant fractions (#26–29) were analysed by SDS-PAGE, (Fig. 2A) and nanoLC-ESI-Q-Orbitrap-MS/MS to identify the proteins present and detect possible PTMs. The same fractions were also tested in ligand-binding assays with some of the two elephants' pheromones and other potential semiochemicals to detect any binding activity (Fig. 2B-C).
Figure 2 (A) Fractionation of a crude extract of trunk wash from the African elephant by anion-exchange chromatography. SDS-PAGE analysis of the fractions showing electrophoretic bands in the low molecular weight range (15–25 kDa). (B) Summary of the affinities to (Z)-7-dodecenyl acetate, (E)-β-farnesene and frontalin measured with crude samples of the same fractions. All of them bound with good affinity both (Z)-7-dodecenyl acetate and (E)-β-farnesene. […] Dissociation constants were evaluated using the procedure adopted when dealing with solutions of a pure protein; as this is not the case, the values have to be taken as a crude indication of the affinity of the ligands for the protein. (C) Examples of the competition curves measured with the three ligands on fraction 27. […]
as §1, with “Accordingly, solutions of protein and 1-NPN, both at the concentration of 2 μM in 50 mM Tris-HCl, pH 7.4, were titrated with 1 mM methanol solutions of each ligand to final concentrations of 2–16 μM.” left out, “Data for 1-NPN were processed with Prism software.” left out

Structure (SMILES)	binding to recombinant LafrOBP1 (in words) (recombinant LafrOBP1)	binding to recombinant EmaxOBP1 (in words) (recombinant EmaxOBP1 [4])	other results
c1ccc(Nc2cccc3ccccc23)cc1 [1-NPN, N-phenyl-1-naphthylamine]	–	–	Kd (recombinant EmaxOBP1 [1]): 460 nM; affinity to the 25 kDa band (in words) [2]: did not show any affinity
CCCC/C=C/CCCCCCOC(C)=O [(E)-7-dodecenyl acetate]	–	–	binding to trunk wash OBP (in words) [3]: shown to bind
C=CC(=C)CC/C=C(\C)CCC=C(C)C [(E)-β-farnesene, (6E)-7,11-dimethyl-3-methylene-1,6,10-dodecatriene]	good ligand	–	–
CC/C=C\CCOC(C)=O [(Z)-3-hexenyl acetate]	did not show significant binding	did not show significant binding	–
CCCC/C=C\CCCCCCOC(C)=O [(Z)-7-dodecenyl acetate]	strongest ligand	–	–
CCCCCC/C=C\CCCCCCCC=O [(Z)-9-hexadecenal]	did not show significant binding	did not show significant binding	–
CCCC/C=C\CCCCCCCCCC=O [(Z)-11-hexadecenal]	did not show significant binding; also recorded: did not exhibit significant affinity	did not show significant binding; also recorded: did not exhibit significant affinity	–
CCCC/C=C\CCCCCCCCCCOC(C)=O [(Z)-11-hexadecenyl acetate]	did not show significant binding	did not show significant binding	–
CCCC/C=C\CCCCCCCCCCCC=O [(Z)-13-octadecenal]	did not show significant binding; also recorded: did not exhibit significant affinity	did not show significant binding; also recorded: did not exhibit significant affinity	–
CC1(C)C2CCC1(C)C(O)C2 (stereo not drawn) [borneol]	did not show significant binding	did not show significant binding	–
CCCCCCCCCC=O [decanal]	did not show significant binding; also recorded: did not exhibit significant affinity	did not show significant binding; also recorded: did not exhibit significant affinity	–
CCCCCCCCCCCC=O [dodecanal]	did not show significant binding	did not show significant binding	–
CCCCCCCCCCCCCC(=O)OCC [ethyl myristate]	did not show significant binding	did not show significant binding	–
CC12CCC(CC1)C(C)(C)O2 [eucalyptol]	did not show significant binding	did not show significant binding	binding to recombinant LafrOBP1 (in words) (recombinant LafrOBP1; listed as eucaliptol): did not exhibit significant affinity; binding to recombinant EmaxOBP1 (in words) (recombinant EmaxOBP1 [4]; listed as eucaliptol): did not exhibit significant affinity
C=CCc1ccc(O)c(OC)c1 [eugenol]	did not show significant binding; also recorded: did not exhibit significant affinity	did not show significant binding; also recorded: did not exhibit significant affinity	–
CC[C@H]1O[C@]2(C)CCC[C@H]1O2 [exo-brevicomin, (1R,5S,7R)-7-ethyl-5-methyl-6,8-dioxabicyclo[3.2.1]octane]	–	–	binding to trunk wash fractions (in words) [5]: did not exhibit any affinity
CC(C)=CCC/C(C)=C/CC/C(C)=C/CO [farnesol]	–	–	binding to trunk wash fractions (in words) [5]: as good a ligand as (E)- β-farnesene
CC12CCCC(C)(OC1)O2 (stereo not drawn) [frontalin, 1,5-dimethyl-6,8-dioxabicyclo[3.2.1]octane]	no affinity; also recorded: did not exhibit any affinity	no affinity	binding to trunk wash fractions (in words) [5]: none of them appreciably bound; also recorded: no affinity
CCCCCC=O [hexanal]	did not exhibit significant affinity	did not exhibit significant affinity	–
CCCCCCCC=O [octanal]	did not show significant binding; also recorded: did not exhibit significant affinity	did not show significant binding; also recorded: did not exhibit significant affinity	–
Cc1ccc(O)cc1 [p-cresol]	did not exhibit significant affinity	did not exhibit significant affinity	–
CCCCCCCCCC1CCC(=O)O1 (stereo not drawn) [γ-tridecalactone]	did not show significant binding	did not show significant binding	–
